For four cell lines, relative viability results are on record in the supplement of paper PMC10307832.

Assay in all cases: relative viability (nuclei count vs DMSO), 5 days (fraction); higher = more cells survive
Compound in experiment [1]: C1COCCN1C2=NC(=NC3=C2OC4=C3C=CC=N4)C5=CC(=CC=C5)NC(=O)C6=CN=C(C=C6)N + CC(=O)c1c(C)c2cnc(Nc3ccc(N4CCNCC4)cn3)nc2n(C2CCCC2)c1=O [Palbociclib] (partner 0.5 µM)
The essentials: (§1)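 Relative viability divides the nuclei count in treated wells by that in vehicle wells. Lung cancer cell lines were seeded in 1536-well plates, dosed by pin tool the next day, and fixed and stained after 5 days in one step with final 0.05% Triton X-100, 1% formaldehyde and 1 ug/ml Hoechst. Dosing was a single drug or a fixed anchor-drug dose plus five library-drug doses (not always all listed) in √10 steps, and values are medians of duplicate plates imaged at 4×.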

Compound in experiment [2]: CN1CCC(CNc2ccc3ncc(-c4cccc(OC(F)(F)F)c4)n3n2)CC1 [SGI-1776] + CC(C)C[C@H](NC(=O)[C@H](Cc1ccccc1)NC(=O)c1cnccn1)B(O)O [Bortezomib] (partner 0.002 µM)
In a few lines: as §1

Compound in experiment [3]: CN1CCC(CNc2ccc3ncc(-c4cccc(OC(F)(F)F)c4)n3n2)CC1 [SGI-1776] + CS(=O)(=O)CCNCc1ccc(-c2ccc3ncnc(Nc4ccc(OCc5cccc(F)c5)c(Cl)c4)c3c2)o1 [Lapatinib] (partner 2 µM)
The essentials:
as §1

Compound in experiment [4]: CN1CCC(CNc2ccc3ncc(-c4cccc(OC(F)(F)F)c4)n3n2)CC1 [SGI-1776] + COc1cc2c(Oc3ccc(NC(=O)C4(C(=O)Nc5ccc(F)cc5)CC4)cc3F)ccnc2cc1OCCCN1CCOCC1 [Foretinib] (partner 0.25 µM)
The essentials:
as §1

For the cell line NCI-H727, the relative viability in experiment [1] (first compound 0.02 µM) came out at 0.579; in experiment [1] (first compound 0.06325 µM), 0.592; in experiment [1] (first compound 0.2 µM), 0.613; in experiment [1] (first compound 0.6325 µM) it was 0.666; in experiment [1] (first compound 2 µM) it was 0.77; in experiment [2] (first compound 0.08 µM), 0.888. In addition, the relative viability in experiment [2] (first compound 0.8 µM) is 1.13; in experiment [2] (first compound 2.53 µM), 0.855; in experiment [2] (first compound 8 µM), 0.724; in experiment [3] (first compound 0.08 µM), 0.933; in experiment [3] (first compound 0.8 µM) it was 1.1; in experiment [3] (first compound 2.53 µM), 0.826. Also, the relative viability in experiment [3] (first compound 8 µM) was found to be 0.793; in experiment [4] (first compound 0.08 µM), 0.988; in experiment [4] (first compound 0.8 µM), 0.971; in experiment [4] (first compound 2.53 µM), 0.926; in experiment [4] (first compound 8 µM), 0.671.
Turning to NCI-H838, the relative viability worked out at 0.194 in experiment [1] (first compound 0.02 µM); 0.212 in experiment [1] (first compound 0.06325 µM); 0.195 in experiment [1] (first compound 0.2 µM); 0.197 in experiment [1] (first compound 0.6325 µM); 0.175 in experiment [1] (first compound 2 µM); 0.848 in experiment [2] (first compound 0.08 µM). In addition, the relative viability amounted to 0.973 in experiment [2] (first compound 0.8 µM); 0.764 in experiment [2] (first compound 2.53 µM); 0.353 in experiment [2] (first compound 8 µM); 0.96 in experiment [3] (first compound 0.08 µM); 1.22 in experiment [3] (first compound 0.8 µM); 0.942 in experiment [3] (first compound 2.53 µM). The relative viability worked out at 0.564 in experiment [3] (first compound 8 µM); 1.08 in experiment [4] (first compound 0.08 µM); 1.05 in experiment [4] (first compound 0.8 µM); 1.05 in experiment [4] (first compound 2.53 µM); 0.669 in experiment [4] (first compound 8 µM).
Consider NCI-H1355, for which the relative viability in experiment [1] (first compound 0.02 µM) worked out at 0.371; in experiment [1] (first compound 0.06325 µM), 0.385; in experiment [1] (first compound 0.2 µM), 0.423; in experiment [1] (first compound 0.6325 µM), 0.609; in experiment [1] (first compound 2 µM) it was 0.354; in experiment [2] (first compound 0.08 µM), 1.2. Moreover, the relative viability in experiment [2] (first compound 0.8 µM) came to 1.24; in experiment [2] (first compound 2.53 µM) it was 1.24; in experiment [2] (first compound 8 µM), 1.03; in experiment [3] (first compound 0.08 µM), 0.915; in experiment [3] (first compound 0.8 µM) it was 0.989; in experiment [3] (first compound 2.53 µM), 1.01. Further, the relative viability in experiment [3] (first compound 8 µM) came out at 0.799; in experiment [4] (first compound 0.08 µM), 0.953; in experiment [4] (first compound 0.8 µM), 1.02; in experiment [4] (first compound 2.53 µM), 0.958; in experiment [4] (first compound 8 µM), 0.919.
Take NCI-H1437: the relative viability stood at 0.3 in experiment [1] (first compound 0.02 µM); 0.312 in experiment [1] (first compound 0.06325 µM); 0.269 in experiment [1] (first compound 0.2 µM); 0.295 in experiment [1] (first compound 0.6325 µM); 0.2 in experiment [1] (first compound 2 µM); 0.587 in experiment [2] (first compound 0.08 µM). The relative viability in experiment [2] (first compound 0.8 µM) worked out at 0.525; in experiment [2] (first compound 2.53 µM) it was 0.536; in experiment [2] (first compound 8 µM), 0.352; in experiment [3] (first compound 0.08 µM), 0.81; in experiment [3] (first compound 0.8 µM) it was 0.918; in experiment [3] (first compound 2.53 µM), 0.806. The relative viability in experiment [3] (first compound 8 µM) was 0.664; in experiment [4] (first compound 0.08 µM), 1.23; in experiment [4] (first compound 0.8 µM) it was 1.29; in experiment [4] (first compound 2.53 µM), 1.37; in experiment [4] (first compound 8 µM) it was 1.17.
